Patent US20220218852A1, “NOVEL RADIOLABELLED CXCR4-TARGETING COMPOUNDS FOR DIAGNOSIS AND THERAPY” (PROVINCIAL HEALTH SERVICES AUTHORITY, priority 2019, published 2022)
Like-named read-outs stand apart in the source and are kept apart here. Positions of bridges follow the written chain, without caps; N, C: chain ends. Non-standard residues stand in square brackets, D forms with d. Residues, ends and D or L forms follow the SMILES beside them. Groups on a side chain read outwards from the residue. Chains are numbered I, II in the order given. *: point of attachment. X5 = C[N+](C)(Cc1cn(CC(=O)*)nn1)C[B-](F)(F)F; 2Nal = N[C@@H](Cc1ccc2ccccc2c1)C(=O)O; X3 = C[N+](C)(CCCC(=O)*)C[B-](F)(F)F; Lys(iPr) = CC(C)NCCCC[C@H](N)C(=O)O

Columns and labels:
CXCR4 [1] = molecular target: T1, CXCR4 (Homo sapiens, UniProt P61073); assay: Competition binding assay ([^125I]SDF-1α, CHO:CXCR4 cells); conditions: competitive binding vs [^125I]SDF-1α, read-out: IC50 (nM), binding affinity for CXCR4
T1 construct: expressed in transfected cells; host or cells: CHO:CXCR4 cells (gift from NIH); CHO:WT used as the control line
T1 sequence (P61073 whole entry): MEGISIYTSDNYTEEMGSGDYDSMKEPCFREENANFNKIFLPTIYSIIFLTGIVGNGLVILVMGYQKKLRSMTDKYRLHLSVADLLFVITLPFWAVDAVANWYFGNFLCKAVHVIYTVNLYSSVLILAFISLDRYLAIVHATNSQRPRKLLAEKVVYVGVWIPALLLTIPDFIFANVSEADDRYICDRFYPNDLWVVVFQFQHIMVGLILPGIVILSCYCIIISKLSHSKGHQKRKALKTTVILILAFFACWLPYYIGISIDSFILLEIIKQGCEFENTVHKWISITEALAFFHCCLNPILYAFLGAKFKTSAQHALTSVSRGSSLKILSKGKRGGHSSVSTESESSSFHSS
Procedure: The binding affinities of nonlabelled peptides for CXCR4 were determined using a competition binding assay using the CHO:CXCR4 cells. Briefly, CHO:CXCR4 cells (200,000 cells/well) were plated in a 24-well BioCoat™ Poly-D-Lysine Multiwell Plates (Corning) the previous night. The next day, each well was incubated with RPMI-1640 medium (Life Technologies Corporations) supplemented with 20 mM HEPES and 2 mg/mL BSA, [^125I]SDF-1α (0.01 nM, Perkin Elmer) and competing non-radioactive ligands ([…]) and incubated for 1-1.5 hours at 27° C. with moderate shaking. After incubation, the cells were washed with ice-cold PBS twice, trypsinized and counted on a Perkin Elmer WIZARD 2480 gamma counter. IC50 values were determined by a nonlinear regression analysis to fit a logistic equation to the competition data using GraphPad Prism 7.

CXCR4 [2] = molecular target: T1, CXCR4; conditions: Peng et al. 2015; read-out: IC50, block SDF-1a binding to CXCR4; cited from earlier work

| IC50 (CXCR4 [1]) [nM] | Molecule | IC50 (CXCR4 [2]) [nM] |
| --- | --- | --- |
| 13.4 ± 2.3 | CC(C)NCCCC[C@@H]1NC(=O)[C@H](Cc2ccc(O)cc2)NC(=O)[C@H](Cc2ccccc2)NC(=O)CC[C@H](C(=O)N[C@@H](CCCCNC(C)C)C(=O)N[C@@H](CCCCNC(=O)[C@H](CCC(=O)O)NC(=O)[C@H](CCC(=O)O)NC(=O)[C@H](CCC(=O)O)NC(=O)Cn2cc(C[N+](C)(C)C[B-](F)(F)F)nn2)C(N)=O)NC(=O)CNC(=O)[C@H](Cc2ccc3ccccc3c2)NC(=O)[C@@H](CCCNC(=N)N)NC1=O [BL09] (FY[Lys(iPr)][dR][2Nal]G[dE][Lys(iPr)]K([Glu-Glu-Glu-X5])-NH2; lactam N-7) | – |
| 11.6 ± 7 | CC(C)NCCCC[C@@H]1NC(=O)[C@H](Cc2ccc(O)cc2)NC(=O)[C@H](Cc2ccccc2)NC(=O)CC[C@H](C(=O)N[C@@H](CCCCNC(C)C)C(=O)N[C@@H](CCCCNC(=O)[C@H](CCC(=O)O)NC(=O)[C@H](CCC(=O)O)NC(=O)[C@H](CCC(=O)O)NC(=O)CCC[N+](C)(C)C[B-](F)(F)F)C(N)=O)NC(=O)CNC(=O)[C@H](Cc2ccc3ccccc3c2)NC(=O)[C@@H](CCCNC(=N)N)NC1=O [BL08] (FY[Lys(iPr)][dR][2Nal]G[dE][Lys(iPr)]K([Glu-Glu-Glu-X3])-NH2; lactam N-7) | – |
| 63 ± 9 | CC(C)NCCCC[C@@H]1NC(=O)[C@H](Cc2ccc(O)cc2)NC(=O)[C@H](Cc2ccccc2)NC(=O)CC[C@H](C(=O)N[C@@H](CCCCNC(C)C)C(=O)N[C@@H](CCCCNC(=O)[C@H](CCC(=O)O)NC(=O)[C@H](CCC(=O)O)NC(=O)[C@H](CCC(=O)O)NC(=O)[C@H](CCCCNC(=O)[C@H](CCC(=O)O)NC(=O)Cn2cc(C[N+](C)(C)C[B-](F)(F)F)nn2)NC(=O)[C@H](CCC(=O)O)NC(=O)Cn2cc(C[N+](C)(C)C[B-](F)(F)F)nn2)C(N)=O)NC(=O)CNC(=O)[C@H](Cc2ccc3ccccc3c2)NC(=O)[C@@H](CCCNC(=N)N)NC1=O [BL04] (I: FY[Lys(iPr)][dR][2Nal]G[dE][Lys(iPr)]K-NH2 / II: X5-EK([Glu-X5])EEE; amide I:9-II:C; lactam I:N-I:7) | – |
| – | cyclo[Phe-Tyr-Lys(iPr)-D-Arg-2-NaI-Gly-D-Glu]-Lys(iPr)-NH2 [LY2510924] | 0.079 |
